# Values quoted from earlier work as cited in US11052042B2, “Aqueous suspensions of ciclesonide for nebulisation” (Covis Pharma B.V., priority 2003, dated 2021).
smiles,measurement,setting,value
"CC(C)C(=O)OCC(=O)[C@@]12O[C@H](C3CCCCC3)O[C@@H]1C[C@H]1[C@@H]3CCC4=CC(=O)C=C[C@]4(C)[C@H]3[C@@H](O)C[C@@]12C [Ciclesonide, [11β,16α(R)]-16,17-[(Cyclohexylmethylen)bis(oxy)]-11-hydroxy-21-(2-methyl-1-oxopropoxy)pregna-1,4-dien-3,20-dion]",concentration of the drug in the lungs,in vivo,high
same,metabolism by liver oxidases,in vivo,very high
same,plasma half-life,in vivo,low
same,absorption after oral administration,oral administration,only moderately absorbed
same,anti-inflammatory activity compared with budesonide,relative to budesonide,higher
same,systemic activity compared with budesonide,relative to budesonide,three times lower
